In patent publication US8512726B1, “Molecular gel-based control release devices for pheromones” (The United States of America, as represented by the …, priority 2010, dated 2013):

Key:
[1] = at 20 C; cited from earlier work
[2] = tested on: varroa (Varroa destructor); settings: at elevated levels, honey bee colonies; cited from earlier work
[3] = Biodegradation: mineralization in compost, respirometer; settings: room temperature (22° C.), compared to starch control
Procedure: The relative degradation rate of samples was determined using a respirometer (Micro-Oxymax System, Columbus Instruments, Columbus, Ohio). The respirometer CO2 sensor was calibrated with a CO2 standard gas (8,000 ppm). […] The analyzer was equipped with a thermoconductivity detector and was operated using helium gas.
Commercial compost was purchased locally and adjusted to 58% moisture (dry weight basis). The glass sample bottles (250 ml) were filled with 20.0 g compost and 0.30 g test sample that was gently mixed with the compost. The sample bottles were initially flushed with CO2-free air and sealed. Respirometry experiments were conducted at room temperature (22° C.) and CO2 concentration was read every 12 hr. Three replications were tested for each treatment and data were expressed in terms of percentage mineralization.

Molecule	vapor pressure [1] [kPa]	Control of parasitic mites [2]	Mineralization rate (biodegradability) [3]
CCCCCC(C)=O [2-heptanone]	0.48	controls parasitic mites	–
mannitol dioctanoate [M8]	–	–	mineralized at nearly the same rate as the starch control
